Source: PubChem BioAssay AID2060900 (Molecular Pharmacology Branch, DTP, NCI, 2025)
Values belong to the molecule of their own block, whether it stands above or below them.

Tested on: 521955-158-R2-J5-PDC complex spheroids, viability
Experiment: Anticancer human tumor 521955-158-R2-J5-PDC patient-derived pancreatic carcinoma cell line growth inhibition [RAS]
Conditions: for IC50: curve of first compound; for viability, T/C: stronger effect = lower value
In short: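 Multi-cell-type spheroids: tumor cells plus HUVEC endothelial cells and mesenchymal stem cells. RAS-pathway inhibitors were combined with targeted agents, each dosed in half-log steps down from clinical Cmax, or from 10 microM when Cmax was unknown.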

[1] = second compound 0.0316 µM, first compound 0.00316 µM
[2] = second compound 0.0316 µM, first compound 0.01 µM
[3] = second compound 0.0316 µM, first compound 0.0316 µM
[4] = second compound 0.0316 µM, first compound 0.1 µM
[5] = second compound 0.0316 µM, first compound 0.316 µM
[6] = second compound 0.0316 µM, first compound 1 µM
[7] = second compound 0.1 µM, first compound 0.00316 µM
[8] = second compound 0.1 µM, first compound 0.01 µM
[9] = second compound 0.1 µM, first compound 0.0316 µM
[10] = second compound 0.1 µM, first compound 0.1 µM
[11] = second compound 0.1 µM, first compound 0.316 µM
[12] = second compound 0.1 µM, first compound 1 µM
[13] = second compound 0.316 µM, first compound 0.00316 µM
[14] = second compound 0.316 µM, first compound 0.01 µM
[15] = second compound 0.316 µM, first compound 0.0316 µM
[16] = second compound 0.316 µM, first compound 0.1 µM
[17] = second compound 0.316 µM, first compound 0.316 µM
[18] = second compound 0.316 µM, first compound 1 µM
[19] = second compound 1 µM, first compound 0.00316 µM
[20] = second compound 1 µM, first compound 0.01 µM
[21] = second compound 1 µM, first compound 0.0316 µM
[22] = second compound 1 µM, first compound 0.1 µM
[23] = second compound 1 µM, first compound 0.316 µM
[24] = second compound 1 µM, first compound 1 µM
[25] = second compound 3.16 µM, first compound 0.00316 µM
[26] = second compound 3.16 µM, first compound 0.01 µM
[27] = second compound 3.16 µM, first compound 0.0316 µM
[28] = second compound 3.16 µM, first compound 0.1 µM
[29] = second compound 3.16 µM, first compound 0.316 µM
[30] = second compound 3.16 µM, first compound 1 µM
[31] = second compound 10 µM, first compound 0.00316 µM
[32] = second compound 10 µM, first compound 0.01 µM
[33] = second compound 10 µM, first compound 0.0316 µM
[34] = second compound 10 µM, first compound 0.1 µM
[35] = second compound 10 µM, first compound 0.316 µM
[36] = second compound 10 µM, first compound 1 µM
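Further: compound exposure lasted seven days before the viability read.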
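Wherever viability, T/C is given: spheroids also contain HUVEC endothelial cells and mesenchymal stem cells as stroma.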

- IC50 (second compound 0.0316 µM): 39.2 nM
- IC50 (second compound 0.1 µM): 217 nM
- IC50 (second compound 0.316 µM): 47.1 nM
- IC50 (second compound 1 µM): < 3.16 nM
- IC50 (second compound 3.16 µM): < 3.16 nM
- IC50 (second compound 10 µM): < 3.16 nM
Compound: C=CC(=O)Nc1cc(Nc2nccc(-c3cn(C)c4ccccc34)n2)c(OC)cc1N(C)CCN(C)C + C#Cc1c(F)ccc2cc(O)cc(-c3ncc4c(N5CC6CCC(C5)N6)nc(OCC56CCCN5CC(F)C6)nc4c3F)c12
- viability, T/C [1]: 65.3%
- viability, T/C [2]: 56%
- viability, T/C [3]: 52.8%
- viability, T/C [4]: 43.5%
- viability, T/C [5]: 38.3%
- viability, T/C [6]: 29.6%
- viability, T/C [7]: 46%
- viability, T/C [8]: 59.9%
- viability, T/C [9]: 49.7%
- viability, T/C [10]: 59.8%
- viability, T/C [11]: 46.7%
- viability, T/C [12]: 22.9%
- viability, T/C [13]: 51%
- viability, T/C [14]: 58.8%
- viability, T/C [15]: 47.1%
- viability, T/C [16]: 48.6%
- viability, T/C [17]: 34.5%
- viability, T/C [18]: 22.6%
- viability, T/C [19]: 46.8%
- viability, T/C [20]: 48.3%
- viability, T/C [21]: 51.1%
- viability, T/C [22]: 43.4%
- viability, T/C [23]: 34.4%
- viability, T/C [24]: 17.8%
- viability, T/C [25]: 43%
- viability, T/C [26]: 53.4%
- viability, T/C [27]: 42.5%
- viability, T/C [28]: 49.9%
- viability, T/C [29]: 27.8%
- viability, T/C [30]: 15%
- viability, T/C [31]: 32.5%
- viability, T/C [32]: 43.9%
- viability, T/C [33]: 32.2%
- viability, T/C [34]: 34.2%
- viability, T/C [35]: 26.1%
- viability, T/C [36]: 3.73%

- IC50 (second compound 0.0316 µM): 2.36 nM
- IC50 (second compound 0.1 µM): < 0.949 nM
- IC50 (second compound 0.316 µM): 1.13 nM
- IC50 (second compound 1 µM): < 0.949 nM
- IC50 (second compound 3.16 µM): < 0.949 nM
- IC50 (second compound 10 µM): < 0.949 nM
Compound: CCc1c2c(nc3ccc(O)cc13)-c1cc3c(c(=O)n1C2)COC(=O)[C@]3(O)CC + C#Cc1c(F)ccc2cc(O)cc(-c3ncc4c(N5CC6CCC(C5)N6)nc(OCC56CCCN5CC(F)C6)nc4c3F)c12
- viability, T/C (second compound 0.0316 µM, first compound 0.000949 µM): 68.1%
- viability, T/C (second compound 0.0316 µM, first compound 0.003 µM): 40.9%
- viability, T/C (second compound 0.0316 µM, first compound 0.00949 µM): 35.7%
- viability, T/C (second compound 0.0316 µM, first compound 0.03 µM): 20.7%
- viability, T/C (second compound 0.0316 µM, first compound 0.0949 µM): 15.3%
- viability, T/C (second compound 0.0316 µM, first compound 0.3 µM): 9.62%
- viability, T/C (second compound 0.1 µM, first compound 0.000949 µM): 43.4%
- viability, T/C (second compound 0.1 µM, first compound 0.003 µM): 34.2%
- viability, T/C (second compound 0.1 µM, first compound 0.00949 µM): 26.9%
- viability, T/C (second compound 0.1 µM, first compound 0.03 µM): 22.5%
- viability, T/C (second compound 0.1 µM, first compound 0.0949 µM): 11.4%
- viability, T/C (second compound 0.1 µM, first compound 0.3 µM): 12.5%
- viability, T/C (second compound 0.316 µM, first compound 0.000949 µM): 51.9%
- viability, T/C (second compound 0.316 µM, first compound 0.003 µM): 39.5%
- viability, T/C (second compound 0.316 µM, first compound 0.00949 µM): 23.8%
- viability, T/C (second compound 0.316 µM, first compound 0.03 µM): 18.3%
- viability, T/C (second compound 0.316 µM, first compound 0.0949 µM): 14.3%
- viability, T/C (second compound 0.316 µM, first compound 0.3 µM): 8.89%
- viability, T/C (second compound 1 µM, first compound 0.000949 µM): 41.1%
- viability, T/C (second compound 1 µM, first compound 0.003 µM): 36.1%
- viability, T/C (second compound 1 µM, first compound 0.00949 µM): 18.4%
- viability, T/C (second compound 1 µM, first compound 0.03 µM): 16.6%
- viability, T/C (second compound 1 µM, first compound 0.0949 µM): 11.3%
- viability, T/C (second compound 1 µM, first compound 0.3 µM): 10.6%
- viability, T/C (second compound 3.16 µM, first compound 0.000949 µM): 41.4%
- viability, T/C (second compound 3.16 µM, first compound 0.003 µM): 34.6%
- viability, T/C (second compound 3.16 µM, first compound 0.00949 µM): 24.7%
- viability, T/C (second compound 3.16 µM, first compound 0.03 µM): 15.8%
- viability, T/C (second compound 3.16 µM, first compound 0.0949 µM): 12.8%
- viability, T/C (second compound 3.16 µM, first compound 0.3 µM): 5.72%
- viability, T/C (second compound 10 µM, first compound 0.000949 µM): 30%
- viability, T/C (second compound 10 µM, first compound 0.003 µM): 23%
- viability, T/C (second compound 10 µM, first compound 0.00949 µM): 16.8%
- viability, T/C (second compound 10 µM, first compound 0.03 µM): 15.5%
- viability, T/C (second compound 10 µM, first compound 0.0949 µM): 11.2%
- viability, T/C (second compound 10 µM, first compound 0.3 µM): 11.8%

- IC50 (second compound 0.00316 µM): > 1000 nM
- IC50 (second compound 0.01 µM): > 1000 nM
- IC50 (second compound 0.0316 µM): > 1000 nM
- IC50 (second compound 0.1 µM): > 1000 nM
- IC50 (second compound 0.316 µM): > 1000 nM
- IC50 (second compound 1 µM): > 1000 nM
Compound: CCN1CCN(Cc2ccc(Nc3ncc(F)c(-c4cc(F)c5nc(C)n(C(C)C)c5c4)n3)nc2)CC1 + C=CC(=O)N1CCN(c2nc(OCC3CCCN3C)nc3c(F)c(-c4nc(N)cc(C)c4C(F)(F)F)c(Cl)cc23)C(C)C1
- viability, T/C (second compound 0.00316 µM, first compound 0.00316 µM): 121%
- viability, T/C (second compound 0.00316 µM, first compound 0.01 µM): 89.3%
- viability, T/C (second compound 0.00316 µM, first compound 0.0316 µM): 85.3%
- viability, T/C (second compound 0.00316 µM, first compound 0.1 µM): 85.2%
- viability, T/C (second compound 0.00316 µM, first compound 0.316 µM): 140%
- viability, T/C (second compound 0.00316 µM, first compound 1 µM): 102%
- viability, T/C (second compound 0.01 µM, first compound 0.00316 µM): 87.2%
- viability, T/C (second compound 0.01 µM, first compound 0.01 µM): 126%
- viability, T/C (second compound 0.01 µM, first compound 0.0316 µM): 76.5%
- viability, T/C (second compound 0.01 µM, first compound 0.1 µM): 120%
- viability, T/C (second compound 0.01 µM, first compound 0.316 µM): 104%
- viability, T/C (second compound 0.01 µM, first compound 1 µM): 108%
- viability, T/C [1]: 101%
- viability, T/C [2]: 148%
- viability, T/C [3]: 88.9%
- viability, T/C [4]: 110%
- viability, T/C [5]: 93.6%
- viability, T/C [6]: 98.4%
- viability, T/C [7]: 147%
- viability, T/C [8]: 103%
- viability, T/C [9]: 115%
- viability, T/C [10]: 110%
- viability, T/C [11]: 108%
- viability, T/C [12]: 112%
- viability, T/C [13]: 145%
- viability, T/C [14]: 109%
- viability, T/C [15]: 80.9%
- viability, T/C [16]: 96.4%
- viability, T/C [17]: 107%
- viability, T/C [18]: 97.6%
- viability, T/C [19]: 120%
- viability, T/C [20]: 92%
- viability, T/C [21]: 81.8%
- viability, T/C [22]: 75.6%
- viability, T/C [23]: 93.5%
- viability, T/C [24]: 100%

- IC50 (second compound 0.0316 µM): > 1000 nM
- IC50 (second compound 0.1 µM): > 1000 nM
- IC50 (second compound 0.316 µM): > 1000 nM
- IC50 (second compound 1 µM): 316 nM
- IC50 (second compound 3.16 µM): < 3.16 nM
- IC50 (second compound 10 µM): < 3.16 nM
Compound: CCN1CCN(Cc2ccc(Nc3ncc(F)c(-c4cc(F)c5nc(C)n(C(C)C)c5c4)n3)nc2)CC1 + C#Cc1c(F)ccc2cc(O)cc(-c3ncc4c(N5CC6CCC(C5)N6)nc(OCC56CCCN5CC(F)C6)nc4c3F)c12
- viability, T/C [1]: 66.7%
- viability, T/C [2]: 69.4%
- viability, T/C [3]: 57.5%
- viability, T/C [4]: 73.8%
- viability, T/C [5]: 71.5%
- viability, T/C [6]: 72.8%
- viability, T/C [7]: 46%
- viability, T/C [8]: 65.2%
- viability, T/C [9]: 59.2%
- viability, T/C [10]: 61.2%
- viability, T/C [11]: 65.9%
- viability, T/C [12]: 66.6%
- viability, T/C [13]: 61.2%
- viability, T/C [14]: 53.5%
- viability, T/C [15]: 46.9%
- viability, T/C [16]: 52.9%
- viability, T/C [17]: 51.1%
- viability, T/C [18]: 67.9%
- viability, T/C [19]: 58.5%
- viability, T/C [20]: 56.4%
- viability, T/C [21]: 58%
- viability, T/C [22]: 45.5%
- viability, T/C [23]: 49.5%
- viability, T/C [24]: 56.1%
- viability, T/C [25]: 50.2%
- viability, T/C [26]: 44.8%
- viability, T/C [27]: 47.8%
- viability, T/C [28]: 42.6%
- viability, T/C [29]: 59.9%
- viability, T/C [30]: 51%
- viability, T/C [31]: 39.7%
- viability, T/C [32]: 37.2%
- viability, T/C [33]: 30.9%
- viability, T/C [34]: 31.4%
- viability, T/C [35]: 36%
- viability, T/C [36]: 24.7%
